Several values for one entry are separate records, joined by “and”; a condition that tells them apart may be missing. Identical values can stand only once.
Key:
[1] = Tolerability of adropin^34-76 in mice; format: in vivo, mouse
From the text: (§1) Using mice, the Inventors have shown that administration of adropin^34-76, in doses as low as 90 nmol/kg/day, delivered as two 45 nmol/kg injections, can be effective in producing changes in metabolism. Dose as high as 900 nmol/kg/d are well tolerated in mice. While the doses required for a desired clinical effect in humans is expected to vary between patients, the 90 nmol/kg dose administered by subcutaneous, intramuscular, or intravenous injection, either once or twice a day, may represent a preferred treatment protocol. It is anticipated that the treatments would be administered daily, although long-acting formulations involving weekly injections are envisaged. The optimum dose and frequency for a particular subject may be determined by the patient's treating physician, based on the patient's cognitive response. It is anticipated that adropin therapy may or may not improve a subject's cognitive function relative to current baseline, however adropin therapy may result in significant delays in the advancement of the disease. Improvement may manifest as a significant delay or a reduced rate of subsequent cognitive decline.

[2] = tested on: male C57BL/6J (B6) mice, aged 18 months; assay: Novel Object Recognition test, aged mice treated with adropin^34-76; format: in vivo, mouse
Method: For the novel object recognition task, mice are habituated to an empty apparatus, a 58×66×11-cm white plastic box, for 5 min a day for 3 consecutive days prior to entry of objects. On the first day of training, mice are placed in the testing apparatus with two identical objects (A and B). 24h later the animal is reintroduced to the arena but this time one of the original objects is removed and a new object (C). Total time spent exploring each of the two objects is recorded. Anxiety will be assessed using open field and elevated plus maze tests. The experimental apparatus consists of a central platform, two open arms and two equal-sized closed arms opposite to each other. The test consisted of placing a mouse in the central platform facing an enclosed arm and allowing it to freely explore the maze for 5 min. The number of entries into the open and closed arms and the time spent in open arms was measure by an observer blind to treatment
(§2) To examine the effects of endogenous adropin on a subject's cognitive ability, 34 male C57BL/6J (B6) mice, aged 18 months, were treated with exogenous adropin^34-76. Mice were purchased from The Jackson Laboratory (Bar Harbor, Me.). After acclimation for 1 month, mice were separated into two weight matched groups of 15 mice: Group 1 adropin^34-76 treatment group and Group 2 saline vehicle control.
(§3) The mice were administered a single intraperitoneal injection (volume 100 μl) each morning (0900h) for 4 weeks. Group 1 was administered adropin^34-76 at a dose of 90 nmol/kg/day. Group 2 was administered saline. The peptide was purchased from Neoscientific Inc. Behavioral testing began after 2 weeks of injections. Injections continued though testing until 4 weeks.
A non-amnesic subject will spend more time exploring the novel object than the familiar one. When adropin treated and vehicle treated mice were subjected to the Novel Object Recognition test, adropin treated mice spent more time exploring the novel object (FIG. 11, Table 1)

[3] = tested on: male C57BL/6J (B6) mice, aged 18 months; assay: Aversive T-maze retention (retest after 7 days), aged mice treated with adropin^34-76; format: in vivo, mouse; settings: 90 nmol/kg/day ip
Method: (§4) Memory retention and acquisition were assessed using an aversive T-maze and novel objective recognition, as previously described (Farr et al., (2016) J Alzheimers Dis.; 54(4):1339-1348). Briefly, the T-maze consists of a black plastic alley with a start box at one end and two goal boxes at the other. An electrifiable floor of stainless steel rods run throughout the maze to deliver a foot-shock using a scrambled grid floor shocker (Model E13-08, Coulbourn Instruments, Whitehall, Pa.). Mice are not permitted to explore the maze prior to training. A block of training trials begins when mice are placed in the start box. The guillotine door is raised and a cue buzzer sounded simultaneously (doorbell type, at 55 dB); 5s later a mild aversive foot-shock is applied with an intensity of 0.35 mA. The arm of the maze entered on the first trial is designated “incorrect” and the mild foot-shock continued until the mouse enters the other goal box, which in all subsequent trials is designated “correct” for each mouse. Mice are trained until they made one active avoidance, with an inter-trial interval of 30-35s. The number of trials to make one active avoidance is the measure of acquisition. Retention is tested 7d later, with training continued until the criterion of making five active avoidances in six consecutive trials is achieved. The number of trials needed to reach this criterion is the measure of retention (Butler et al., (2012) The Journal of clinical endocrinology and metabolism; 97(10):3783-3791; Wong et al., (2014) The Journal of biological chemistry; 289(37):25976-25986).
as §2, §3
(FIG. 12, Table 3) Mice were retested in the maze after 7 days and Adropin treated mice retained learned memories and complete the maze in lets time.

[4] = tested on: plasma cytokine levels; assay: Plasma cytokine levels after TBI; format: in vivo, mouse; settings: TBI followed by adropin vs TBI followed by saline
Method: FIG. 17 illustrates plasma cytokine levels of mice that were: uninjured, subjected to TBI, and subjected to TBI followed by adropin injections.
TBI PROCEDURE: Mice were exposed to mild closed-head concussive TBI. Mice were anesthetized with isoflurane 2-4% and placed under a device consisting of a Plexiglas tube (inner diameter 13 mm) placed vertically over the animal's head. Adequate anesthesia was determined by the lack of both the corneal reflex and toe pinch reflex. Each mouse received 90 sec Isoflurane anesthesia in the induction chamber. The injury was induced by dropping a 25-gm acrylic weight from 80 cm height down the Plexiglas tube, striking the skull. This weight was chosen based upon literature using this type of device (Tweedie et al. (2016) PLoS One. 11(6):e0156493; Zohar et al. (2011) Acta Neurobiol Exp. 71:36-45). […] Following Isoflurane anesthesia and the weight drop procedure, mouse respiration, heart rate and righting reflex was monitored to ensure recovery. The righting reflex time was recorded for each mouse. […] When the mouse moves from a supine to a prone position, i.e., rights itself, the time will be recorded. […] One hour following the weight drop injury four reflexes were checked and recorded: the corneal reflex in both eyes, hindleg extension when held by the tail, startle response from a puff of air, and the ability to walk with a normal gate. […]

[5] = Body weight and survival during 4 weeks of adropin^34-76 injections; format: in vivo; settings: group 1 (adropin^34-76, 90 nmol/kg/day ip), 15 mice
Method: as §2, §3

[6] = tested on: Hippocampal gene expression; assay: Hippocampal gene expression (cytokines, growth factors) after TBI; format: in vivo, mouse; settings: TBI+Adr vs TBI+veh and Sham
Method: FIG. 18 illustrates Hippocampal gene expression. There are increases in the expression of cytokines (significant for IL16, CCI2, IL17) in the hippocampus of TBI-veh mice versus uninjured (sham) controls TBI also appears to result in changes in expression of growth factors (BDNF, VEGF). In most cases, these changes were attenuated by adropin treatment.
Gene expression was assessed using qRT-PCR as previously described. Hippocampal and cortical tissue samples were dissected from fresh brains and snap frozen brains on dry-ice cold isopentane. Total RNA was extracted using Trizol (Invitrogen, Life Technologies) and treated with a DNAfree kit (Ambion, Life Technologies). […] Quantitative PCR was performed in 96-well plates using Taqman gene expression and QuantStudio 7 Detection Systems (Applied Biosystems, Life Technologies); 36B4 was used as the reference gene.
(§5) TBI PROCEDURE: Mice were exposed to mild closed-head concussive TBI. […] Adequate anesthesia was determined by the lack of both the corneal reflex and toe pinch reflex. […] Following Isoflurane anesthesia and the weight drop procedure, mouse respiration, heart rate and righting reflex was monitored to ensure recovery. The righting reflex time was recorded for each mouse. […] When the mouse moves from a supine to a prone position, i.e., rights itself, the time will be recorded. […]

[7] = tested on: male C57BL/6J (B6) mice, aged 18 months; assay: Aversive T-maze acquisition, aged mice treated with adropin^34-76; format: in vivo, mouse; settings: 90 nmol/kg/day ip
Method: as §4, §2, §3
Mice prepared with adropin or placebo in Example 3 were subjected to the Acquisition T-maze test.

[8] = tested on: subjects with diet-induced obesity; settings: Kumar et al. 2008, Gao et al. 2014, 2015; cited from earlier work
[9] = tested on: Male C57BL/6J B6 mice subjected to TBI; assay: T-maze retention after mild closed-head traumatic brain injury (TBI); format: in vivo, mouse
Method: FIG. 16 illustrates the results of T-maze data from adropin treated and adropin transgenic mice after traumatic brain injury. SHAM are mice handled but not subject to injury. Veh are mice treated with 0.9% saline. […] (A) Mice used were males, aged 10-14 weeks, purchased from the Jackson laboratory. (B) “TG” are adropin transgenic mice. “WT” are wild-type littermates. All mice were males aged 9-12 months.
Memory retention and acquisition were assessed using an aversive T-maze and novel objective recognition, as previously described (Farr et al., (2016) J Alzheimers Dis.; 54(4):1339-1348). Briefly, the T-maze consists of a black plastic alley with a start box at one end and two goal boxes at the other. An electrifiable floor of stainless steel rods run throughout the maze to deliver a foot-shock using a scrambled grid floor shocker (Model E13-08, Coulbourn Instruments, Whitehall, Pa.). Mice are not permitted to explore the maze prior to training. A block of training trials begins when mice are placed in the start box. The guillotine door is raised and a cue buzzer sounded simultaneously (doorbell type, at 55 dB); 5s later a mild aversive foot-shock is applied with an intensity of 0.35 mA. The arm of the maze entered on the first trial is designated “incorrect” and the mild foot-shock continued until the mouse enters the other goal box, which in all subsequent trials is designated “correct” for each mouse. Mice are trained until they made one active avoidance, with an inter-trial interval of 30-35s. The number of trials to make one active avoidance is the measure of acquisition. […]
as §5

[10] = Metabolic effect of adropin^34-76 administration in mice; format: in vivo, mouse; settings: delivered as two 45 nmol/kg injections
From the text: as §1

[11] = n = 14, SEM in next cell, P <0.0001 vs vehicle

In the case of “adropin^34-76 (CHSRSADVDSLSESSPNSSPGPCPEKAPPPQKPSHEGSYLLQP; Adropin; UniProt Q6UWT2 34-76, looked up, fragment)”, the dose well tolerated [1] is reported as no more than 900 nmol/kg/day, the “Novel Object Recognition, result in words vs vehicle treated mice” value ([2]; 90 nmol/kg/day ip) is reported as “improved cognitive performance” and the “Novel Object Recognition, difference between means (Adropin vs. Vehicle)” value ([2]; 90 nmol/kg/day ip, vehicle mean 43.90) is reported as 14.99. The “Novel Object Recognition, mean (Adropin)” value ([2]; n = 15, SEM in next cell, P 0.0183 vs vehicle, unpaired t test, 90 nmol/kg/day ip) was 58.88, the “Novel Object Recognition test, 24 Hour delay % Novel Object (individual mice)” value ([2]; one value per mouse, 90 nmol/kg/day ip for 4 weeks, testing after 2 weeks) was 55.56% and 77.50% and 66.67% and 79.10% and 51.06% and 100.00% and 51.61% and 46.43% and 42.86% and 53.06% and 37.50% and 40.74% and 64.58% and 62.50% and 58.82% and the “T-maze Retention, difference between means (Adropin vs. Vehicle)” value ([3]; vehicle mean 9.200) was −2.343. The “T-maze Retention, mean (Adropin)” value [3, 11] was 6.857, the “T-maze Retention (individual mice)” value ([3]; one value per mouse, trials to five active avoidances in six consecutive trials, 7 d later) was 7. (7×) and 8. and 6. (5×) and 9 and the “T-maze retention, result in words vs vehicle” value ([3]; retested after 7 days) was “superior performance”. The “plasma cytokine levels after TBI, in words” value [4] was “possible reduction in inflammatory responses to TBI”, the deaths during treatment [5] was “One mouse in group 1 died” and the “TBI-induced changes in hippocampal cytokine and growth factor expression, in words” value [6] was “these changes are attenuated in most cases”. For the same substance, the “T-maze acquisition, result in words vs placebo treated mice” value [7] was “performed better”, the “T-maze acquisition, difference between means (Adropin vs. Vehicle)” value ([7]; vehicle mean 10.80) was −3.443 and the “T-maze acquisition, mean (Adropin)” value [7, 11] was 7.357. For the same substance, the “T-maze acquisition (individual mice)” value ([7]; one value per mouse, number of trials to make one active avoidance) was 7. (5×) and 8. (4×) and 9. (2×) and 6. (3×), the “metabolic changes after intraperitoneal injection, in words” value [8] was “metabolic changes suggesting improvements in glucose control and reduced risk for type 2 diabetes” and the “deficits in spatial learning and memory after TBI” value ([9]; 450 nmol/kg iv at 1 h and 450 nmol/kg ip at 24 h post-injury, male B6 mice) was “exhibited protection from deficits in spatial learning and memory”. For the same substance, the “T-maze retention after TBI, compared with uninjured vehicle treated controls” value ([9]; TBI+Adro vs SHAM+Veh) was “not significantly different”, the “T-maze retention after TBI, compared with TBI followed by saline” value ([9]; TBI+Adro vs TBI+Veh, injections 1 h and 24 h post-injury, ** 99% confidence) was “significantly improved” and the “dose effective in producing changes in metabolism” value [10] was no less than 90 nmol/kg/day.
